Series [1] in a line: Form stability analysis (solubility and concurrent slurry experiments). The format is physicochemical. The procedure:
As form conversions tend to happen faster at elevated temperature at 60° C., slurries were performed for the starting material used for the screening (A/G mixture) during 18 h at 60° C.
Forms J and C were identified as potential non-solvates and their stability was investigated. Form J could be eliminated as stable form because, in part, the DSC (FIG. 36) indicated an exothermic form conversion around 140° C. This leads to a form melting at 210° C., which likely represents Form G and therefore represents a monotropic relation.
Form C was obtained by drying a Form C/J mixture. The XRPD pattern appeared to contain traces of reflexes of Form J. Slurries of Form C seeded with Form A (15% w/w) in ethanol and acetone were performed during 18 h. The resulting solid was pure Form A. This also confirmed the exothermic event observed in DSC (FIG. 16) which indicated a monotropic relation to the form formed in DSC around 130° C. (melting point 210° C., which, as described herein, is likely Form G).

Series [2] is described as follows: Solubility of Forms A and G after 40 min stirring. The series is classed as physicochemical. The procedure:
For purity estimation and determination of the solubility in solution a generic in-house HPLC method was used. HPLC was performed using a Phenomenex Luna 3 μm C18 (50×4.6 mm) column and detected with a DAD detector, recording at 214 nm.

One compound from US10604510B2, “Solid forms comprising (1E, 4E)-2-amino-N,N-dipropyl-8-(4-(pyrrolidine-1-carbonyl)phenyl)-3H-benzo[B]azepine-4-carboxami compositions thereof, and uses thereof” (Celgene Corporation, priority 2014, dated 2020) can be followed below.

Converted amounts (≈) assume the structure as drawn.

In general, Solubility refers to the dissolved amount per volume that the medium holds. The low end stands for little dissolved substance, the high end for much dissolved substance.

For `CCCN(CCC)C(=O)C1=Cc2ccc(-c3ccc(C(=O)N4CCCC4)cc3)cc2N=C(N)C1` [Form G, (1E, 4E)-2-amino-N,N-dipropyl-8-(4-(pyrrolidine-1-carbonyl)phenyl)-3H-benzo[b]azepine-4-carboxamide], the “stability relative to other crystalline forms” value in series [1] is “less stable at 25 °C in comparison to Form A”. The Solubility in series [2] (EtOH, 0 ° C.) was determined as 7600 µg/mL (≈ 16.6 mM); in series [2] (EtOH, 22 ° C.), 15800 µg/mL (≈ 34.5 mM); in series [2] (EtOH, 60 ° C.), 36900 µg/mL (≈ 80.5 mM); in series [2] (MEK, 0 ° C.), 2600 µg/mL (≈ 5.67 mM); in series [2] (MEK, 22 ° C.), 3100 µg/mL (≈ 6.76 mM); in series [2] (MEK, 60 ° C.) it was 4600 µg/mL (≈ 10 mM).
